Measurements as given in ChEMBL document CHEMBL2401627, “Synthesis of some novel chalcones, flavanones and flavones and evaluation of their anti-inflammatory activity” (Eur J Med Chem, 2013).

Tests used:
[1] = system: Rattus norvegicus; experiment: Antiinflammatory activity in Wistar rat assessed as inhibition of carrageenan-induced hind paw oedema at 20 mg/kg, po administered 30 mins before carrageenan challenge measured after 5 hrs by plethysmometer relative to control; format: functional
[2] = system: Rattus norvegicus; experiment: Antiinflammatory activity in Wistar rat assessed as inhibition of carrageenan-induced hind paw oedema at 20 mg/kg, po administered 30 mins before carrageenan challenge measured after 3 hrs by plethysmometer relative to control; format: functional
[3] = system: RAW264.7; experiment: Antiinflammatory activity in mouse RAW264.7 cells assessed as inhibition of LPS-induced TNFalpha production at 10 uM treated 30 mins before LPS challenge measured after 3 hrs by ELISA relative to control; format: functional
[4] = system: RAW264.7; experiment: Antiinflammatory activity in mouse RAW264.7 cells assessed as inhibition of LPS-induced TNFalpha production at 10 uM treated 30 mins before LPS challenge measured after 2 hrs by ELISA relative to control; format: functional
[5] = system: RAW264.7; experiment: Antiinflammatory activity in mouse RAW264.7 cells assessed as inhibition of LPS-induced TNFalpha production at 10 uM treated 30 mins before LPS challenge measured after 1 hr by ELISA relative to control; format: functional
[6] = system: RAW264.7; experiment: Antiinflammatory activity in mouse RAW264.7 cells assessed as inhibition of LPS-induced TNFalpha production at 5 uM treated 30 mins before LPS challenge measured after 3 hrs by ELISA relative to control; format: functional
[7] = system: RAW264.7; experiment: Antiinflammatory activity in mouse RAW264.7 cells assessed as inhibition of LPS-induced TNFalpha production at 5 uM treated 30 mins before LPS challenge measured after 2 hrs by ELISA relative to control; format: functional
[8] = system: RAW264.7; experiment: Antiinflammatory activity in mouse RAW264.7 cells assessed as inhibition of LPS-induced TNFalpha production at 5 uM treated 30 mins before LPS challenge measured after 1 hr by ELISA relative to control; format: functional
[9] = molecular target: T1, Prostaglandin G/H synthase 1 (Ovis aries, UniProt P05979); experiment: Inhibition of ovine COX1
T1 sequence (P05979 whole entry): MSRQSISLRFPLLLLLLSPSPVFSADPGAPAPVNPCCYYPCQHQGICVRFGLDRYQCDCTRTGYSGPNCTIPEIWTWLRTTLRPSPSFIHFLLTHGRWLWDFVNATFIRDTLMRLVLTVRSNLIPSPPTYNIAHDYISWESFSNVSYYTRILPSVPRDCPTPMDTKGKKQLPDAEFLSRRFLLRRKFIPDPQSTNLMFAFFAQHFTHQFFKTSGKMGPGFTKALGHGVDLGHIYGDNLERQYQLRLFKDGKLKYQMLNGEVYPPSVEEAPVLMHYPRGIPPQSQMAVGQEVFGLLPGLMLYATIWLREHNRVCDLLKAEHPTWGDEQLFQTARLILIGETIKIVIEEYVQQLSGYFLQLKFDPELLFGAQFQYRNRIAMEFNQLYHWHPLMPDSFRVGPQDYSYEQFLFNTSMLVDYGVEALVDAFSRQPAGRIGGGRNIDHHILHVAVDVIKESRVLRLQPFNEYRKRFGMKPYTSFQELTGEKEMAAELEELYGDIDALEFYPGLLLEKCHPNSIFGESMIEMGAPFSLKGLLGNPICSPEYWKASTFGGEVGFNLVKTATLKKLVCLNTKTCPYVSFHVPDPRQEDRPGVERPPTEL

[10] = system: Rattus norvegicus; experiment: Gastrointestinal toxicity in Wistar rat assessed as ulcerogenic index at 60 mg/kg, po after 6 hrs relative to control; format: organism-based; design: dose 60 mg/kg, route oral; details: in vivo

| Structure (SMILES) | inhibition in vivo at 20 mg/kg [1] [%] | inhibition in vivo at 20 mg/kg [2] [%] | also measured |
| --- | --- | --- | --- |
| COc1cc(C)c(Cl)c(C)c1C(=O)/C=C/c1ccccc1[N+](=O)[O-] | 66.7 | 63.6 |  |
| Cc1cc2oc(-c3ccc(Cl)cc3)cc(=O)c2c(C)c1Cl | 22.9 | 26.1 |  |
| COc1cc(/C=C/C(=O)c2c(O)cc(C)c(Cl)c2C)cc(OC)c1OC | 90.6 | 91.7 | Activity [3]: 88.83 pg/mL; Activity [4]: 53.77 pg/mL; Activity [5]: 34.99 pg/mL; Activity [6]: 104.78 pg/mL; Activity [7]: 79.77 pg/mL; Activity [8]: 49.42 pg/mL; IC50 [9]: 87.5 µM; UI [10]: 0.4 mm |
| COc1ccc(C2CC(=O)c3c(cc(C)c(Cl)c3C)O2)cc1OC (stereo not drawn) | 41.7 | 48.5 |  |
| Cc1cc2c(c(C)c1Cl)C(=O)CC(c1ccccc1O)O2 (stereo not drawn) | 75 | 58.8 |  |
| COc1ccc(C2CC(=O)c3c(cc(C)c(Cl)c3C)O2)cc1 (stereo not drawn) | 70 | 51.1 |  |
| Cc1cc2c(c(C)c1Cl)C(=O)CC(c1cccc(O)c1)O2 (stereo not drawn) | 44.4 | 46.4 |  |
| COc1cc(C)c(Cl)c(C)c1C(=O)/C=C/c1cccc(O)c1 | 75 | 80.8 | UI [10]: 0.33 mm |
| COc1cc(C)c(Cl)c(C)c1C(=O)/C=C/c1ccccc1Cl | 12.5 | 27.8 |  |
| COc1cc(/C=C/C(=O)c2c(OC)cc(C)c(Cl)c2C)cc(OC)c1OC | 62.5 | 76.9 | UI [10]: 0.16 mm |
| Cc1cc2c(c(C)c1Cl)C(=O)CC(c1ccccc1)O2 (stereo not drawn) | 27.7 | 43.3 |  |
| Cc1cc2oc(-c3ccccc3)cc(=O)c2c(C)c1Cl | 16.2 | 26.3 |  |
| COc1cc(C2CC(=O)c3c(cc(C)c(Cl)c3C)O2)ccc1O (stereo not drawn) | 66 | 44.4 |  |
| Cc1cc(O)c(C(=O)/C=C/c2ccc(Cl)cc2)c(C)c1Cl | 36 | 41.6 |  |
| Cc1cc2oc(-c3ccccc3Cl)cc(=O)c2c(C)c1Cl | 57.1 | 36.8 |  |
| COc1cc(C2CC(=O)c3c(cc(C)c(Cl)c3C)O2)cc(OC)c1OC (stereo not drawn) | 44.4 | 48.5 |  |
| Cc1cc2c(c(C)c1Cl)C(=O)CC(c1cccc([N+](=O)[O-])c1)O2 (stereo not drawn) | 51.4 | 53.6 |  |
| COc1ccc(/C=C/C(=O)c2c(O)cc(C)c(Cl)c2C)cc1 | 55 | 50 |  |
| COc1cc(C)c(Cl)c(C)c1C(=O)/C=C/c1cccc([N+](=O)[O-])c1 | 22.2 | 68.2 |  |

| Structure (SMILES) | inhibition in vivo at 20 mg/kg [1] [%] | inhibition in vivo at 20 mg/kg [2] [%] | also measured |
| --- | --- | --- | --- |
| Cc1cc(O)c(C(=O)/C=C/c2ccccc2)c(C)c1Cl | 82 | 70 | UI [10]: 0.4 mm |
| COc1ccc(/C=C/C(=O)c2c(OC)cc(C)c(Cl)c2C)cc1 | 12.5 | 16.7 |  |
| Cc1cc2c(c(C)c1Cl)C(=O)CC(c1ccc(N(C)C)cc1)O2 (stereo not drawn) | 81 | 82 | UI [10]: 0 mm |
| Cc1cc(O)c(C(=O)/C=C/c2ccccc2[N+](=O)[O-])c(C)c1Cl | 14.3 | 26.3 |  |
| COc1cc(C)c(Cl)c(C)c1C(=O)/C=C/c1ccccc1 | 75 | 69.2 |  |
| Cc1cc(O)c(C(=O)/C=C/c2ccccc2Cl)c(C)c1Cl | 70 | 33 |  |
| Cc1cc2c(c(C)c1Cl)C(=O)CC(c1ccc(Cl)cc1)O2 (stereo not drawn) | 70 | 37.8 |  |
| COc1cc(/C=C/C(=O)c2c(OC)cc(C)c(Cl)c2C)ccc1O | 25 | 22.2 |  |
| Cc1cc2c(c(C)c1Cl)C(=O)CC(c1ccccc1Cl)O2 (stereo not drawn) | 56 | 22.2 |  |
| COc1cc(-c2cc(=O)c3c(C)c(Cl)c(C)cc3o2)cc(OC)c1OC | 73.3 | 68.4 | UI [10]: 0 mm |
| COc1ccc(-c2cc(=O)c3c(C)c(Cl)c(C)cc3o2)cc1 | 28.6 | 58 |  |
| COc1ccc(-c2cc(=O)c3c(C)c(Cl)c(C)cc3o2)cc1OC | 22.9 | 43.1 |  |
| COc1ccc(/C=C/C(=O)c2c(OC)cc(C)c(Cl)c2C)cc1OC | 62 | 81 | UI [10]: 0.16 mm |
| COc1cc(C)c(Cl)c(C)c1C(=O)/C=C/c1ccc(Cl)cc1 | 12.5 | 22.2 |  |
| Cc1cc(O)c(C(=O)/C=C/c2cccc(O)c2)c(C)c1Cl | 71 | 83 | UI [10]: 0.4 mm |
| COc1cc(C)c(Cl)c(C)c1C(=O)/C=C/c1ccc(N(C)C)cc1 | 18.8 | 22.2 |  |
| COc1cc(C)c(Cl)c(C)c1C(=O)/C=C/c1ccccc1O | 50 | 33.3 |  |
| COc1ccc(/C=C/C(=O)c2c(O)cc(C)c(Cl)c2C)cc1OC | 82 | 71 | UI [10]: 0.6 mm |
| COc1ccc2c(c1)c(CC(=O)O)c(C)n2C(=O)c1ccc(Cl)cc1 [INDOMETHACIN] | 86 | 67 | UI [10]: 1.5 mm |
